Molecules are shown by their SMILES.

Data on four compounds can be found in patent US7998933B2, “Process for treating the skin comprising applying to the skin at least one composition comprising at least one N-aminoacylamide” (L'Oreal S.A., priority 2000, dated 2011).

Assay [1] concerns the target T1, human leukocyte elastase (HLE) (Homo sapiens, UniProt P08246).
T1 sequence (P08246 30-267): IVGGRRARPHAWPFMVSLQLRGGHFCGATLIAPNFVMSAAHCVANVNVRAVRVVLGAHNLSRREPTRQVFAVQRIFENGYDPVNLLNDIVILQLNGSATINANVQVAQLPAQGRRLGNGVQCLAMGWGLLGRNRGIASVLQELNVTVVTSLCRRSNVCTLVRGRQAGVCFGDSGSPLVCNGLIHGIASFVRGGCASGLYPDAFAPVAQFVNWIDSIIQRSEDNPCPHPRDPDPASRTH
Briefly: in vitro anti-elastase activity, substrate Me-OSAAPV-p-NA, spectrophotometry. In kind it is biochemical. As to the method:
The in vitro anti-elastase activity of compounds according to the invention with respect to human leukocyte elastase (HLE) was determined. […]
The percentage inhibition of the control elastase activity is then determined by spectrophotometry.

In assay [2] the test system is surviving human skin irradiated with UVA (8 J/cm^2). The assay can be described thus: activity on surviving human skin irradiated with UVA, morphometric analysis of elastic fibres and collagen. Conditions: UVA 8 J/cm^2 once + 5 μl of 0.2% compound every two days, 7 days at 37° C. In kind it is cell-based. The method, then: The activity of the compound of Example 2 on surviving human skin irradiated with UVA (8 J/cm^2) was evaluated.
Fragments of normal human skin obtained from four different donors are placed in inserts positioned in culture wells. Culture medium supplemented with antibiotics is placed in the bottom of the wells. A passage is carried out by slow diffusion between the two compartments by means of a porous membrane (pore size: 12 μm).
(§1) The culture medium is freshened every three days.
5 μl of the test compound, predissolved at a concentration of 0.2% in ethanol, is added to the skin fragments every two days.
The skins are kept alive for 7 days at 37° C.
The skins are irradiated once at 8 J/cm^2 (Vilbert-Lourmat RMX-3W lamp).
(§2) The elastic fibres are stained blue with (+)-catechin and morphometrically quantified by computer-assisted image analysis. The percentage of average dermal surface area occupied by the elastic fibres is thus evaluated.

For assay [3], the system named is surviving human skin treated with human leukocyte elastase (HLE). The assay can be described thus: ex vivo activity on fresh sections of human skin treated with HLE for 2 hours, morphometric quantification of elastic fibres. Format: cell-based. Conditions: 10 μg/ml HLE + 0.1% compound, 2 hours at 20° C. The method, then:
(§3) The ex vivo activity of the compound of Example 2 was evaluated on surviving human skin treated with human leukocyte elastase (HLE).
Fresh sections of human skin, obtained from 2 different donors, are treated for 2 hours at 20° C. with 20 μl of buffer solution (pH 7.4) optionally comprising 10 μg/ml of HLE and optionally 0.1% of the test compound, optionally predissolved in ethanol.
as §2

Assay [4] shares this test system. Briefly: ex vivo activity on human skin fragments kept alive in culture for 10 days with HLE, morphometric quantification of elastic fibres. Format: cell-based. Conditions: three donors; 0.5 μg/ml HLE + 5 μl of 0.2% compound in ethanol every two days, 10 days at 37° C.; control 7.4%, HLE alone 5.1%. As to the method: as §3
Fragments of normal human skin obtained from three different donors are placed in inserts positioned in culture wells. Culture medium supplemented with antibiotics is placed in the bottom of the wells. A passage is carried out by slow diffusion between the two compartments by means of a porous membrane (pore size: 12 μm).
as §1
0.5 μg of HLE per ml of culture medium is optionally added to the skin fragments.
5 μl of the test compound, predissolved at a concentration of 0.2% by weight in ethanol, is also added every two days.
The skins are kept alive for 10 days at 37° C.
as §2

Where [5] appears, read: compound concentration 0.1%, HLE 40 milliunits per ml, 37° C., 60 minutes.

Consider `CCOC(=O)CNC(=O)C(C(C)C)N(Cc1ccccc1)C(C)=O` (centres unmarked) [Compound D, ethyl [2-(acetylbenzylamino)-3-methylbutyrylamino]acetate], for which the “% inhibition of the control elastase activity” value (“% inhibition” below) in assay [1] (setting [5]) is on record as 13%.

Turning to `CC(=O)N(c1cccc(C(F)(F)F)c1)C(C(=O)NCC(=O)O)C(C)C` (centres unmarked) [Example 2, {2-[acetyl (3-trifluoromethylphenyl)amino]-3-methylbutyrylamino}acetic acid], the “Morphometric analysis of the elastic fibres (superficial dermis)” value in assay [2] (untreated 6.75%, UVA alone 3.9%) is 6.8%. Besides, in assay [2] (untreated 87%, UVA alone 81%), the “Morphometric analysis of the collagen (superficial dermis)” value was 92%. In assay [1], the “inhibition of the elastase activity (in words)” value is listed as “strong inhibition of the elastase activity, even in a small amount”. Besides, the “% inhibition” value in assay [1] (setting [5]) came to 67%; in assay [1] (concentration of compound A 0.01%), 53%; in assay [1] (concentration of compound A 0.05%), 50%; in assay [1] (concentration of compound A 0.1% (concentration series)), 68%; in assay [1] (concentration of compound A 0.2%), 68%. For the same compound, the “% of surface area occupied by the elastic fibres” value in assay [3] (Skin 1, control 12.7%, HLE alone 4.85%) was 13.95%; in assay [3] (Skin 2, control 15.25%, HLE alone 6.85%), 11.85%; in assay [4], 7.1%.

As for `CCOC(=O)CNC(=O)C(C(C)C)N(Cc1ccccc1)C(=O)CP(=O)(OCC)OCC` (centres unmarked) [Compound B, ethyl [2-{benzyl((diethoxyphosphoryl)acetyl]amino}-3-methylbutyrylamino)acetate], in assay [1] (setting [5]), the “% inhibition” value stood at 17%.

With `CC(=O)N(Cc1ccccc1)C(C(=O)NCC(=O)O)C(C)C` (centres unmarked) [Compound C, [2-(acetylbenzylamino)-3-methylbutyrylamino]acetic acid], in assay [1] (setting [5]), the “% inhibition” value is given as 20%.
